From paper PMC10791743, “Selective CK1α degraders exert antiproliferative activity against a broad range of human cancer cell lines” (Nature Communications, 2024)

Experiments:
Experiment in all cases: cells
Design in all cases: Oncolines panel cell viability, ATPlite 1Step luminescence, duplicate 9-point dose response, IC50
[1] = system: A388; settings: 72 h viability; read-out: SJ3149
Method: (§1) Cell viability assays were performed as previously described. In brief, cells were seeded in a 384-well plate at an optimized density. The starting cell number was determined after 24 h incubation by adding ATPlite 1Step (Perkin Elmer, Groningen, the Netherlands) to each well and recording luminescence on an Envision multimode reader (Perkin Elmer, Waltham, MA). After the addition of a duplicate 9-point dilution series of SJ3149, cells were incubated for another 72 h, followed by cell counting using ATPlite 1Step. The dilution series ranged from 3.2 to 31,600 nM or was diluted 100-fold for the most sensitive cell lines to ideally capture the complete dose–response curve. Percentage viability was determined at each compound concentration by relating the observed signal to a vehicle-treated control, that is, medium containing 0.4% (v/v) DMSO. Compound IC50 values were calculated by fitting a 4-parameter logistic curve to the percentage viability values using IDBS XLfit5 (IDBS, Guildford, UK). The IC50 was limited to the maximum tested compound concentration when the IC50 exceeded the maximum tested concentration. […] To evaluate the compound’s effect and potential therapeutic application across a diverse range of human cancers, we profiled SJ3149 in Oncolines® panel consisting of 115 human cancer cell lines, of which 86 were solid tumor and 29 hematologic cell lines, including MOLM-13. Effect on cell viability was monitored using ATPLite™ (Perkin Elmer), which measures intracellular ATP content as an indirect readout of cell number, like CellTiter Glo.

[2] = system: CAL 27; settings: Homo sapiens, CAL-27; 72 h viability; read-out: SJ3149
Method: as §1

[3] = system: DB; settings: Homo sapiens, DB; 72 h viability; read-out: SJ3149
Method: as §1

[4] = system: DLD-1; settings: Homo sapiens, DLD-1; 72 h viability; read-out: SJ3149
Method: as §1

[5] = system: DU 145; settings: Homo sapiens, DU-145; 72 h viability; read-out: SJ3149
Method: as §1

[6] = system: G-361; settings: Homo sapiens, G-361; 72 h viability; read-out: SJ3149
Method: as §1

[7] = system: HCT 116; settings: Homo sapiens, HCT-116; 72 h viability; read-out: SJ3149
Method: as §1

[8] = system: HCT-15; settings: Homo sapiens, HCT-15; 72 h viability; read-out: SJ3149
Method: as §1

[9] = system: Hs 578T; settings: Homo sapiens, Hs-578T; 72 h viability; read-out: SJ3149
Method: as §1

[10] = system: J82; settings: Homo sapiens, J82; 72 h viability; read-out: SJ3149
Method: as §1

[11] = system: Kasumi-1; settings: Homo sapiens, Kasumi 1; 72 h viability; read-out: SJ3149
Method: as §1

[12] = system: NCI-H460; settings: Homo sapiens, NCI-H460; 72 h viability; read-out: SJ3149
Method: as §1

[13] = system: OVCAR-3; settings: Homo sapiens, OVCAR-3; 72 h viability; read-out: SJ3149
Method: as §1

[14] = system: PF-382; settings: Homo sapiens, PF-382; 72 h viability; read-out: SJ3149
Method: as §1

[15] = system: PFSK-1; settings: Homo sapiens, PFSK-1; 72 h viability; read-out: SJ3149
Method: as §1

[16] = system: SJCRH30; settings: 72 h viability; read-out: SJ3149
Method: as §1

[17] = system: SK-N-AS; settings: Homo sapiens, SK-N-AS; 72 h viability; read-out: SJ3149
Method: as §1

[18] = system: SW872; settings: Homo sapiens, SW872; 72 h viability; read-out: SJ3149
Method: as §1

[19] = system: SW948; settings: Homo sapiens, SW948; 72 h viability; read-out: SJ3149
Method: as §1

[20] = system: U-2 OS; settings: Homo sapiens, U2OS; 72 h viability; read-out: SJ3149
Method: as §1

Measured: IC50

O=C1CCC(N2Cc3cc(Nc4noc5ccccc45)ccc3C2=O)C(=O)N1 (centres unmarked) [SJ3149]
> 31.6 µM: all assays above
